Assay results taken from PubChem BioAssay AID330 (DTP/NCI, 2004).
“And” between values parts separate entries of the source, which are not always exact repeats. Equal entries are not always repeated. Inconclusive results and toxic doses are left out. Square brackets hold non-standard residues; d marks the D form. Peptide text beside a SMILES is read from it. ξ: configuration not given here. ξH = NC(Cc1c[nH]cn1)C(=O)O

Test system: P388 leukemia ip, CD2F1 mice, survival T/C
Experiment: NCI In Vivo Anticancer Drug Screen. Data for tumor model P388 Leukemia (intraperitoneal) in CD2F1 (CDF1) mice
Conditions: endpoint: median survival time, higher = longer survival
Summary of the method: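 Mice carrying the transplanted tumor received test compound or vehicle. Survival was recorded in each group, and the value is the treated-group measurement divided by that of the vehicle-treated control group.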

[1] = dose: 12.5 mg/kg/injection, schedule: Q01DX009 (ip), vehicle: saline
[2] = dose: 25.0 mg/kg/injection, schedule: Q01DX009 (ip), vehicle: saline
[3] = dose: 50.0 mg/kg/injection, schedule: Q01DX009 (ip), vehicle: saline
[4] = dose: 12.5 mg/kg/injection, schedule: Q01DX009 (ip), vehicle: saline with Tween-80
[5] = dose: 25.0 mg/kg/injection, schedule: Q01DX009 (ip), vehicle: saline with Tween-80
[6] = dose: 50.0 mg/kg/injection, schedule: Q01DX009 (ip), vehicle: saline with Tween-80
[7] = dose: 100.0 mg/kg/injection, schedule: Q01DX009 (ip), vehicle: saline with Tween-80
[8] = dose: 50.0 mg/kg/injection, schedule: Q01DX005 (ip), vehicle: saline with Tween-80
[9] = dose: 100.0 mg/kg/injection, schedule: Q01DX005 (ip), vehicle: saline with Tween-80
[10] = dose: 200.0 mg/kg/injection, schedule: Q01DX005 (ip), vehicle: saline with Tween-80
[11] = dose: 6.25 mg/kg/injection, schedule: Q01DX009 (ip), vehicle: saline
[12] = dose: 100.0 mg/kg/injection, schedule: Q01DX009 (ip), vehicle: saline
[13] = dose: 200.0 mg/kg/injection, schedule: Q01DX009 (ip), vehicle: saline
[14] = dose: 50.0 mg/kg/injection, schedule: Q01DX009 (ip), vehicle: Klucel (hydroxypropylcellulose) (HPC)
[15] = dose: 100.0 mg/kg/injection, schedule: Q01DX009 (ip), vehicle: Klucel (hydroxypropylcellulose) (HPC)

Structure (SMILES): CC1=C(C(=O)Nc2cccc3ccccc23)C(c2cccc([N+](=O)[O-])c2)C(C(=O)Nc2cccc3ccccc23)=C(C)N1
- T/C (dose: 7.5 mg/kg/injection, schedule: Q01DX005 (ip), vehicle: Klucel (hydroxypropylcellulose) (HPC)): 100 % of control
- T/C (dose: 15.0 mg/kg/injection, schedule: Q01DX005 (ip), vehicle: Klucel (hydroxypropylcellulose) (HPC)): 100 % of control
- T/C (dose: 30.0 mg/kg/injection, schedule: Q01DX005 (ip), vehicle: Klucel (hydroxypropylcellulose) (HPC)): 103 % of control

Structure (SMILES): N#CC[n+]1ccccc1
- T/C [1]: 100 % of control
- T/C [2]: 100 % of control
- T/C [3]: 101 % of control

Structure (SMILES): CNc1ccccc1C(=O)N/N=C/C=C/c1ccccc1
- T/C [4]: 102 % of control
- T/C [5]: 105 % of control
- T/C [6]: 104 % of control
- T/C [7]: 118 % of control

Structure (SMILES): Clc1ccccc1C(Nc1ncccn1)Nc1ncccn1
- T/C (dose: 50.0 mg/kg/injection, schedule: Q01DX005 (ip), vehicle: Klucel (hydroxypropylcellulose) (HPC)): 93 % of control
- T/C (dose: 100.0 mg/kg/injection, schedule: Q01DX005 (ip), vehicle: Klucel (hydroxypropylcellulose) (HPC)): 93 % of control
- T/C (dose: 200.0 mg/kg/injection, schedule: Q01DX005 (ip), vehicle: Klucel (hydroxypropylcellulose) (HPC)): 96 % of control

Structure (SMILES): N=C(N)SC1C=C(O)C=C(c2c(O)c(=O)oc3ccccc23)C1=O (configuration not stated)
- T/C [8]: 104 % of control
- T/C [9]: 103 % of control
- T/C [10]: 88 % of control

Structure (SMILES): COc1cccc(-c2ccncc2)c1
- T/C [8]: 102 % of control
- T/C [9]: 93 % of control
- T/C [10]: 93 % of control

Structure (SMILES): COc1cc(NC(=O)N(CCCl)N=O)cc(OC)c1OC
- T/C (dose: 0.18 mg/kg/injection, schedule: Q01DX009 (ip), vehicle: alcohol): 107 % of control
- T/C (dose: 0.27 mg/kg/injection, schedule: Q01DX009 (ip), vehicle: alcohol): 109 % of control
- T/C (dose: 0.4 mg/kg/injection, schedule: Q01DX009 (ip), vehicle: alcohol): 100 % of control
- T/C (dose: 0.6 mg/kg/injection, schedule: Q01DX009 (ip), vehicle: alcohol): 107 % of control
- T/C (dose: 1.33 mg/kg/injection, schedule: Q01DX009 (ip), vehicle: saline + alcohol): 173 % of control
- T/C (dose: 2.0 mg/kg/injection, schedule: Q01DX009 (ip), vehicle: saline + alcohol): 170 % of control
- T/C (dose: 7.5 mg/kg/injection, schedule: Q04DX003 (ip), vehicle: saline + alcohol): 154 % of control
- T/C (dose: 12.5 mg/kg/injection, schedule: Q04DX003 (ip), vehicle: other): 215 % of control
- T/C (dose: 25.0 mg/kg/injection, schedule: Q04DX003 (ip), vehicle: other): 280 % of control
- T/C (dose: 50.0 mg/kg/injection, schedule: Q04DX003 (ip), vehicle: other): 300 % of control

Structure (SMILES): CC(=O)OCN(C)N=Nc1ccc(C(C)=O)cc1
- T/C (dose: 60.0 mg/kg/injection, schedule: Q01DX005 (ip), vehicle: Klucel (hydroxypropylcellulose) (HPC)): 106 % of control and 114 % of control and 118 % of control
- T/C (dose: 120.0 mg/kg/injection, schedule: Q01DX005 (ip), vehicle: Klucel (hydroxypropylcellulose) (HPC)): 100 % of control and 109 % of control and 124 % of control
- T/C (dose: 480.0 mg/kg/injection, schedule: Q01DX005 (ip), vehicle: Klucel (hydroxypropylcellulose) (HPC)): 108 % of control

Structure (SMILES): N#CC1=C(C#N)C(=O)C(Cl)=C(Cl)C1=O
- T/C (dose: 3.13 mg/kg/injection, schedule: Q01DX009 (ip), vehicle: saline): 109 % of control
- T/C [11]: 118 % of control
- T/C (dose: 6.25 mg/kg/injection, schedule: Q04DX002 (ip), vehicle: saline): 95 % of control
- T/C (dose: 6.25 mg/kg/injection, schedule: Q04DX003 (ip), vehicle: saline): 95 % of control
- T/C [1]: 118 % of control
- T/C (dose: 12.5 mg/kg/injection, schedule: Q04DX002 (ip), vehicle: saline): 109 % of control
- T/C (dose: 12.5 mg/kg/injection, schedule: Q04DX003 (ip), vehicle: saline): 113 % of control
- T/C (dose: 25.0 mg/kg/injection, schedule: Q04DX002 (ip), vehicle: saline with Tween-80): 117 % of control
- T/C (dose: 25.0 mg/kg/injection, schedule: Q04DX002 (ip), vehicle: saline): 116 % of control
- T/C (dose: 62.5 mg/kg/injection, schedule: Q01DX005 (ip), vehicle: saline): 95 % of control
- T/C (dose: 125.0 mg/kg/injection, schedule: Q01DX005 (ip), vehicle: saline): 113 % of control
- T/C (dose: 250.0 mg/kg/injection, schedule: Q01DX005 (ip), vehicle: saline): 94 % of control

Structure (SMILES): CC12CCC3c4ccc(OP(=O)(N5CC5)N5CC5)cc4CCC3C1CCC2O (configuration not stated)
- T/C [4]: 96 % of control and 97 % of control
- T/C [5]: 110 % of control and 96 % of control
- T/C [6]: 100 % of control and 92 % of control
- T/C [7]: 115 % of control

Structure (SMILES): CCCCCCCCCCCCCCCCCCCC[N+]1([O-])CCOCC1
- T/C (dose: 3.12 mg/kg/injection, schedule: Q01DX009 (ip), vehicle: saline): 101 % of control
- T/C [11]: 87 % of control
- T/C [1]: 87 % of control and 94 % of control
- T/C [2]: 94 % of control
- T/C [3]: 90 % of control and 92 % of control

Structure (SMILES): O=C1CCCCC1O (configuration not stated)
- T/C [3]: 104 % of control and 106 % of control
- T/C [12]: 100 % of control and 103 % of control
- T/C [13]: 110 % of control and 97 % of control
- T/C (dose: 400.0 mg/kg/injection, schedule: Q01DX009 (ip), vehicle: saline): 88 % of control and 95 % of control

Structure (SMILES): Nc1ccc(S(=O)(=O)Nc2nc(/C=C/c3ccccc3)cc(-c3cc(/C=C/c4ccccc4)nc(NS(=O)(=O)c4ccc(N)cc4)n3)n2)cc1
- T/C (dose: 60.0 mg/kg/injection, schedule: Q01DX005 (ip), vehicle: saline with Tween-80): 94 % of control
- T/C (dose: 120.0 mg/kg/injection, schedule: Q01DX005 (ip), vehicle: saline with Tween-80): 95 % of control
- T/C (dose: 240.0 mg/kg/injection, schedule: Q01DX005 (ip), vehicle: saline with Tween-80): 94 % of control

Structure (SMILES): CCCCOP(=O)(N1CC1(C)C)N1CC1(C)C (configuration not stated)
- T/C (dose: 2.0 mg/kg/injection, schedule: Q01DX009 (ip), vehicle: saline): 104 % of control and 115 % of control and 96 % of control
- T/C (dose: 4.0 mg/kg/injection, schedule: Q01DX009 (ip), vehicle: saline): 115 % of control and 117 % of control and 98 % of control
- T/C (dose: 8.0 mg/kg/injection, schedule: Q01DX009 (ip), vehicle: saline): 108 % of control and 111 % of control
- T/C (dose: 10.0 mg/kg/injection, schedule: Q01DX001 (ip), vehicle: saline): 105 % of control and 111 % of control and 115 % of control
- T/C (dose: 20.0 mg/kg/injection, schedule: Q01DX001 (ip), vehicle: saline): 101 % of control and 102 % of control
- T/C (dose: 40.0 mg/kg/injection, schedule: Q01DX001 (ip), vehicle: saline): 105 % of control and 117 % of control

Structure (SMILES): COC(=O)NCP(=O)(CNC(=O)OC)CNC(=O)OC
- T/C [14]: 100 % of control
- T/C [15]: 98 % of control
- T/C (dose: 200.0 mg/kg/injection, schedule: Q01DX009 (ip), vehicle: Klucel (hydroxypropylcellulose) (HPC)): 100 % of control

Structure (SMILES): c1ccc2n[nH]nc2c1
- T/C [3]: 100 % of control
- T/C (dose: 100.0 mg/kg/injection, schedule: Q01DX001 (ip), vehicle: saline with Tween-80): 112 % of control
- T/C [7]: 104 % of control
- T/C [12]: 100 % of control
- T/C (dose: 100.0 mg/kg/injection, schedule: Q04DX003 (ip), vehicle: saline with Tween-80): 95 % of control
- T/C (dose: 200.0 mg/kg/injection, schedule: Q01DX001 (ip), vehicle: saline with Tween-80): 105 % of control
- T/C (dose: 200.0 mg/kg/injection, schedule: Q01DX009 (ip), vehicle: saline with Tween-80): 109 % of control
- T/C [13]: 104 % of control
- T/C (dose: 200.0 mg/kg/injection, schedule: Q04DX003 (ip), vehicle: saline with Tween-80): 109 % of control

Structure (SMILES): NC(Cc1ccc(OC2c3ccccc3-c3ccccc32)cc1)C(=O)O (configuration not stated)
- T/C [3]: 100 % of control
- T/C [12]: 91 % of control
- T/C [13]: 87 % of control

Structure (SMILES): NCC(=O)NCC(=O)NC(Cc1cnc[nH]1)C(=O)O (stereo not drawn) (H-Gly-Gly-[ξH]-OH)
- T/C (dose: 50.0 mg/kg/injection, schedule: Q01DX005 (ip), vehicle: saline): 103 % of control
- T/C (dose: 100.0 mg/kg/injection, schedule: Q01DX005 (ip), vehicle: saline): 96 % of control
- T/C (dose: 200.0 mg/kg/injection, schedule: Q01DX005 (ip), vehicle: saline): 104 % of control

Structure (SMILES): [Cl][Pd][Cl].[NH-]CCN1CC1
- T/C (dose: 25.0 mg/kg/injection, schedule: Q01DX009 (ip), vehicle: Klucel (hydroxypropylcellulose) (HPC)): 119 % of control
- T/C [14]: 112 % of control
- T/C [15]: 114 % of control
